Results from ChEMBL document CHEMBL1134701, “Atropisomeric quinazolin-4-one derivatives are potent noncompetitive alpha-amino-3-hydroxy-5-methyl-4-isoxazolepropionic acid (AMPA) receptor antagonists” (Bioorg Med Chem Lett, 2001).

Tests used:
[1] = target: T1, Glutamate receptor ionotropic, AMPA (Rattus norvegicus, UniProt P19490+P19491+P19492+P19493); assay: Ability to block kainate-induced 45 [Ca2+] influx through functional assay of Ionotropic glutamate receptor AMPA activity in rat cerebellar granule cells
[2] = target: T1, Glutamate receptor ionotropic, AMPA; assay: Evaluated in patch clamp electrophysiology study for its selectively evoked Ionotropic glutamate receptor AMPA mediated inward currents.
Rattus norvegicus [3] = species on record: Rattus norvegicus; assay: Evaluated in patch clamp electrophysiology study for its selectively evoked AMPA and NMDA (glutamate receptors) mediated inward currents reduction; format: functional
Rattus norvegicus [4] = assay: Evaluated in vivo for the reduction in the population spike amplitude in the CA3 region of the hippocampus in anesthetized rat at a dose of 2 mg/kg (iv); format: functional
Mus musculus [5] = assay: Blockade of ivc AMPA induced seizures in mice on subcutaneous administration (95%CI); format: functional
Mus musculus [6] = assay: Blockade of pentylenetetrazole induced seizures in mice on subcutaneous administration (95% CI); format: functional
Mus musculus [7] = assay: Minimum effective dose in mice on subcutaneous administration; format: functional
[8] = target: T1, Glutamate receptor ionotropic, AMPA; assay: Ability to block kainate-induced 45 [Ca2+] influx through functional assay of Ionotropic glutamate receptor AMPA activity in rat cerebellar granule cells.
Mus musculus [9] = assay: Blockade of pentylenetetrazole induced seizures in mice on subcutaneous administration; format: functional; conditions: sc, read-out: ID50 (the source's name)

Row | SMILES | IC50 [1] [nM] | other results
1 | COC(=O)c1cccc(/C=C/c2nc3ccc(F)cc3c(=O)n2-c2ccccc2Cl)n1 | 400 | 
2 | O=c1c2ccccc2nc(/C=C/c2ccccn2)n1-c1ccccc1 | > 1000 | 
3 | CNCc1cccc(/C=C/c2nc3ccc(F)cc3c(=O)n2-c2ccccc2Cl)n1 | 103 | 
4 | O=Cc1cccc(/C=C/c2nc3ccc(F)cc3c(=O)n2-c2ccccc2Cl)n1 | 97 | 
5 | COc1cccc2c(=O)n(-c3ccccc3C)c(/C=C/c3ccccn3)nc12 | > 1000 | 
6 | Cc1ccc2nc(/C=C/c3ccccn3)n(-c3ccccc3C)c(=O)c2c1 | 1370 | 
7 | Cc1ccccc1-n1c(/C=C/c2ccccn2)nc2c(Cl)cc(Cl)cc2c1=O | > 1000 | 
8 | O=c1c2cc(F)ccc2nc(/C=C/c2cccc(N3CCCC3)n2)n1-c1ccccc1Cl | 31 | 
9 | Cc1cccc(/C=C/c2nc3ccc(F)cc3c(=O)n2-c2ccccc2Cl)n1 | 36 | 
10 | CCOCc1cccc(/C=C/c2nc3ccc(F)cc3c(=O)n2-c2ccccc2Cl)n1 | 82 | 
11 | Cc1cccc(C)c1-n1c(/C=C/c2ccccn2)nc2ccccc2c1=O | > 1000 | 
12 | O=c1c2cc(F)ccc2nc(/C=C/c2ccccn2)n1-c1c(F)cccc1F | > 300 | 
13 | NCc1cccc(/C=C/c2nc3ccc(F)cc3c(=O)n2-c2ccccc2Cl)n1 | 340 | 
14 | N#Cc1cccc(/C=C/c2nc3ccc(F)cc3c(=O)n2-c2ccccc2Cl)n1 | 244 | 
15 | Cc1ccccc1-n1c(/C=C/c2ccccn2)nc2cc(Cl)ccc2c1=O | > 3000 | 
16 | CC(C)NCc1cccc(/C=C/c2nc3ccc(F)cc3c(=O)n2-c2ccccc2Cl)n1 | 59 | 
17 | CN(C)Cc1cccc(/C=C/c2nc3ccc(F)cc3c(=O)n2-c2ccccc2Cl)n1 | 178 | 
18 | Cc1ccccc1-n1c(/C=C/c2ccccn2)nc2ccc(F)cc2c1=O | 248 | 
19 | CC(=O)OCc1cccc(/C=C/c2nc3ccc(F)cc3c(=O)n2-c2ccccc2Cl)n1 | 45 | 
20 | O=c1c2ccccc2nc(/C=C/c2ccccn2)n1-c1ccccc1F | 116 | 
21 | O=c1c2ccccc2nc(/C=C/c2ccccn2)n1-c1ccccc1Br | 102 | 
22 | COCc1cccc(/C=C/c2nc3ccc(F)cc3c(=O)n2-c2ccccc2Cl)n1 | 42 | 

Row | SMILES | IC50 [1] [nM] | other results
23 | O=c1c2cc(F)ccc2nc(/C=C/c2ccccn2)n1-c1ccccc1F | 180 | 
24 | COc1ccccc1-n1c(/C=C/c2ccccn2)nc2ccccc2c1=O | 1100 | 
25 | Cc1ccccc1-n1c(/C=C/c2ccccn2)nc2c(Cl)cccc2c1=O | > 1000 | 
26 | O=C(O)c1cccc(/C=C/c2nc3ccc(F)cc3c(=O)n2-c2ccccc2Cl)n1 | > 1000 | 
27 | O=c1c2ccccc2nc(/C=C/c2ccccn2)n1-c1ccccc1Cl | 433 | 
28 | CCNCc1cccc(/C=C/c2nc3ccc(F)cc3c(=O)n2-c2ccccc2Cl)n1 | 81 | 
29 | O=c1c2cc(F)ccc2nc(/C=C/c2ccccn2)n1-c1ccccc1Cl | 96 | 
30 | O=c1c2cc(F)ccc2nc(/C=C/c2cccc(CO)n2)n1-c1ccccc1Cl | 58 | 
31 | O=c1c2cc(F)ccc2nc(/C=C/c2cccc(N3CCCCC3)n2)n1-c1ccccc1Cl | > 300 | 
32 | Cc1ccccc1-n1c(/C=C/c2ccccn2)nc2ccc(Cl)cc2c1=O | 124 | 
33 | O=c1c2ccccc2nc(/C=C/c2ccccn2)n1-c1ccccc1C(F)(F)F | 146 | 
34 | O=c1c2cc(F)ccc2nc(/C=C/c2cccc(CF)n2)n1-c1ccccc1Cl | 56 | 
35 | COc1cccc(/C=C/c2nc3ccc(F)cc3c(=O)n2-c2ccccc2Cl)n1 | 31 | 
36 | O=c1c2ccccc2nc(/C=C/c2ccccn2)n1-c1c(Cl)cccc1Cl | > 1000 | 
37 | CN(C)CCN(C)Cc1cccc(/C=C/c2nc3ccc(F)cc3c(=O)n2-c2ccccc2Cl)n1 | 150 | 
38 | Cc1ccccc1-n1c(/C=C/c2ccccn2)nc2ccc(Br)cc2c1=O | 162 | 
39 | COc1cc2nc(/C=C/c3ccccn3)n(-c3ccccc3C)c(=O)c2cc1OC | > 1000 | 
40 | O=c1c2cc(F)ccc2nc(/C=C/c2ccccn2)n1-c1ccccc1Br | 65 | 
41 | CCN(CC)Cc1cccc(/C=C/c2nc3ccc(F)cc3c(=O)n2-c2ccccc2Cl)n1 (stereo in doubt; 38) | 74 | IC50 [2]: 25 nM; Reduction (Rattus norvegicus [3]): 36%; Blockade (Rattus norvegicus [4]): 65.1%; ED50 (Mus musculus [5]; Mus musculus, sc, read-out: ID50 (the source's name)): 3.6 mg/kg; ID50 (Mus musculus [6]): 3.8 mg/kg; minimal effective dose (Mus musculus [7]; Mus musculus, sc, read-out: MED): 10 mg/kg
42 | CCN(CC)Cc1cccc(/C=C/c2nc3ccc(F)cc3c(=O)n2-c2ccccc2Cl)n1 (stereo in doubt; (+)-38) |  | IC50 [8]: 36 nM; ID50 (Mus musculus [5]): 3.1 mg/kg; ID50 (Mus musculus [6]): 1.5 mg/kg; MED (Mus musculus [7]): 5.6 mg/kg
43 | CCN(CC)Cc1cccc(/C=C/c2nc3ccc(F)cc3c(=O)n2-c2ccccc2Cl)n1 (stereo in doubt; (-)-38) |  | IC50 [8]: 0.1 nM; ED50 (Mus musculus [9]): 10 mg/kg
44 | Cc1ccccc1-n1c(/C=C/c2ccccn2)nc2ccccc2c1=O [PIRIQUALONE] | 460 | 
